Measurements taken from patent publication US9181172B2, “Rhein conjugates, preparation method thereof and their uses in producing medicines for treating diabetic nephrosis, intestinal adhesion and osteoarthritis” (priority 2005, dated 2015).

How the values were obtained:
Type in all cases: in vivo
[1] = tested on: rats; assay: Intestinal adhesion in rats; settings: for Rating of adhesion degree 0: number of 12 rats with completely no adhesion; for Rating of adhesion degree 0 / Rating of adhesion degree III / Rating of adhesion degree I / Rating of adhesion degree IV / Rating of adhesion degree II: 7th day; for Rating of adhesion degree III: number of 12 rats with more than two adhering zones; for Rating of adhesion degree I: number of 12 rats with one adhering zone; for Rating of adhesion degree IV: number of 12 rats with organs adhering to abdominal wall directly; for Rating of adhesion degree II: number of 12 rats with two adhering zones
Protocol: Rats were fasted for 12 h and models were built according to the methods in the literature [Xu Shuyun, Methodology in Pharmacological Experiment (the 3rd version): 1335]. The rats were randomly divided into five groups, namely, model control group, dexamethasone group, rhein sodium group, rhein glucosamine large dose group and low dose group. Each group included 12 rats. […] The rats of the model group were administered with the same volume of NS, while the rats of the positive control group were administered with dexamethasone, administered once every two days, dose: 10 mg/kg. The administration volume was the same as the treatment group. The rats were killed on the 7th day and carried on laparotomy. Adhesion degree was classified and scored respectively. The classification and score of the observed index-adhesion degree can refer to the five-grade classification method prepared by Nair, and determine the classification standard, see Schedule 13. Intestinal adhesion classification adopts Ridit analysis. The test results are as follows (Table 14): […]

[2] = tested on: rats; assay: Formation of cotton ball granuloma in rats (Example 59 Test 2)
Protocol: Rats were randomly divided into five groups (model control group, indomethacin group, rhein glucosamine large dose group and low dose group and rhein sodium group). Each group included 10 rats, and built models according to the method in the literature [Xu Shuyun, Methodology in Pharmacological Experiment (the 3rd version): 918]. The rats were administered by medicines from the day when starting the operation. […] The rats were killed in two weeks, and tests were performed according to the methods in the literature, the net weight of granulation was calculated, and t test was used for the intergroup comparison.

[3] = tested on: rabbits' ear marginal veins; assay: Safety of hydro-acupuncture injection: irritation of rabbits' ear marginal vein; settings: slowly into the vein every two days, three times
Text: In rabbits' ear marginal vein aseptic operation, rhein sodium salt, rhein arginine conjugates and 0.9% sodium chloride injection liquid were slowly filled into the veins respectively every two days for three consecutive times.

[4] = tested on: mice; assay: Intestinal propulsion in mice; settings: intravenous injection
Protocol: Fifty mice, male, weighting from 18 to 22 g, were randomly divided into five groups, namely, model control group, domperidone group, rhein sodium group, rhein glucosamine large dose group and low dose group.
Each group has 10 mice respectively. The mice were fasted, but water was not prohibited, and then administered with medicines by intravenous injection. After that, tests were carried on immediately according to the methods in the literature[Xu Shuyun, Methodology in Pharmacological Experiment (the 3rd version): 1313]. The intestinal propulsive rates were calculated, and t test was used for the intergroup comparison.

[5] = tested on: mice; assay: Capillary permeability of mice
Protocol: Each group has 12 mice, administration: 0.20 ml/10 g. Mice in the model control group were administrated with isovolumic physiologic saline.

[6] = tested on: rats; assay: Formation of granuloma in rats (arthritis example, test 4); settings: 10 mg/kg intramuscular, two weeks
Protocol: Rats were randomly divided into five groups (model control group, indomethacin group, rhein glucosamine large dose group and small dose group and rhein sodium group). Each group has 10 […]. According to the method in the literature [Xu Shuyun, Methodology in Pharmacological Experiment (the 3rd version): 918], the models were built, and the rats were administered with medicines since the day when starting operations. […] Two weeks later, the rats were killed and test was carried on according to the method in the literature. The net weight of granulation was calculated, and t test was used for the intergroup comparison.

[7] = tested on: rats; assay: Carrageenan-induced acute pleurisy exudation and leukoplania in rats; settings: intraperitoneal 10 mg/kg, four hours after carrageenan
Protocol: Forty male rats of 200±20 g weight were selected and divided into five groups, namely, model control group, indomethacin group, rhein sodium group, rhein glucosamine large dose group and small dose group. Eight rats for each group. The rats were administered with medicines by intraperitoneal administration, one hour later, the rats were induced with acute pleurisy by carrageenan according to the method in the literature [Xu Shuyun, Methodology in Pharmacological Experiment (the 3rd version): 916]. Four hours later, the rats were killed and the volume of pleural effusion and total white cell count were measured.

Rhein Arginine Conjugate
abdominal adhesion ratings compared with the control group ([1]; large dose and low dose groups, p<0.05): statistical significances | Rating of adhesion degree 0 ([1]; 6 mg/kg once a day): 1 | Rating of adhesion degree 0 ([1]; 12 mg/kg once a day): 3 | Rating of adhesion degree III ([1]; 6 mg/kg once a day): 3 | Rating of adhesion degree III ([1]; 12 mg/kg once a day): 2 | Rating of adhesion degree I ([1]; 6 mg/kg once a day): 4 | Rating of adhesion degree I ([1]; 12 mg/kg once a day): 5 | Rating of adhesion degree IV ([1]; 6 mg/kg once a day): 1 | Rating of adhesion degree IV ([1]; 12 mg/kg once a day): 0 | Rating of adhesion degree II ([1]; 6 mg/kg once a day): 3 | Rating of adhesion degree II ([1]; 12 mg/kg once a day): 2 | inhibition of the formation of cotton ball granuloma compared with the model group ([2]; ig, large dose and low dose groups, p<0.01): significant effect on the inhibition | biopsy of rabbits' ear marginal vein [3]: normal without endothelial injuries, thrombosis and other pharmacological change | irritation on rabbits' ear marginal veins ([3]; vs 0.9% sodium chloride): no irritation | Propulsive rate ([4]; dosage 12 mg/kg): 53.81 ± 8.9 % | Propulsive rate ([4]; dosage 24 mg/kg): 66.47 ± 9.7 % | absorbance value ([5]; dosage 12 mg/kg): 0.476 ± 0.096 | absorbance value ([5]; dosage 24 mg/kg): 0.455 ± 0.105

COc1ccc2c(c1)c(CC(=O)O)c(C)n2C(=O)c1ccc(Cl)cc1 [indomethacin]
Net weight of granulation [6]: 12.17 ± 2.49 mg | net weight of granulation ([2]; 10 mg/kg intramuscular, two weeks): 12.21 ± 2.43 mg | Volume of exudation fluid [7]: 0.26 ± 0.11 | WBC [7]: 3.01 ± 1.59 ×109/L
